Measured values reported in US9814699B2, “Chemical compounds” (Janssen Pharmaceuticals, Inc., priority 2009, dated 2017).

What was measured:
[1] = system: HCV genotype 1a subgenomic replicon; assay: HCV replicon assay, genotype 1a subgenomic replicon (luciferase); format: cell-based; conditions: Hepatitis C virus; genotype 1a replicon stable cell line, luciferase activity measured 48 hours later; read-out: Replicon 1A pEC50 (converted)
Procedure: (§1) Protocol for Testing and Data Analysis of Compounds in the HCV Replicon Assay
(§2) Compounds were assayed for activity against HCV using the genotype 1a and 1b subgenomic replicon model systems. Stable cell lines bearing the genotype 1a and 1b replicons were used for screening of compounds. Both replicons are bicistronic and contain the firefly luciferase gene. The ET cell line is stably transfected with RNA transcripts harboring a I389luc-ubi-neo/NS3-3′/ET replicon with firefly luciferase-ubiquitin-neomycin phosphotransferase fusion protein and EMCV-IRES driven NS3-5B polyprotein containing the cell culture adaptive mutations (E1202G; T1280I; K1846T) (Krieger at al, 2001 and unpublished). The genotype 1a replicon is a stable cell line licensed from Apath LLC, modified to contain the firefly luciferase gene. The cells were grown in DMEM, supplemented with 10% fetal calf serum, 2 mM Glutamine, Penicillin (100 IU/mL)/Streptomycin (100 μg/mL), 1× nonessential amino acids, and 250-500 μg/mL G418 (“Geneticin”). They were all available through Life Technologies (Bethesda, Md.). The cells were plated at 5×10^3 cells/well in 384 well plates containing compounds. The final concentration of compounds ranged between 0.03 pM to 50 μm and the final DMSO concentration of 0.5-1%.
(§3) Luciferase activity was measured 48 hours later by adding a Steady glo reagent (Promega, Madison, Wis.). Percent inhibition of replication data was plotted relative to no compound control. Under the same condition, cytotoxicity of the compounds was determined using cell titer glo (Promega, Madison, Ws). EC50s were determined from an 11 point dose response curve using 3-4-fold serial dilution for each compound, which spans a concentration range >1000 fold. The level of inhibition for each compound was determined with Activity Base or with BioAssay plus the Excel XC50 module. Percent inhibition was determined with the following equation where the cross-talk corrected value is the value from the test well, the compound positive control mean is the average value of the wells with no compound present, and the DMSO negative control mean is the average value of the wells with DMSO but no cells present.
(§4) [formula] These normalized values are exported to EC50 where they are plotted against the molar compound concentrations using the standard four parameter logistic equation: […]

[2] = system: HCV genotype 1b subgenomic replicon; assay: HCV replicon assay, genotype 1b subgenomic replicon (ET cell line, luciferase); format: cell-based; conditions: Hepatitis C virus; genotype 1b replicon ET cell line, luciferase activity measured 48 hours later; read-out: Replicon 1B pEC50 (converted)
Procedure: as §1, §2, §3, §4

| SMILES | EC50 [1] [nM] | EC50 [2] [nM] |
| --- | --- | --- |
| COC(=O)N[C@H](C(=O)N1CCC[C@H]1c1ncc(-c2ccc(-c3ccc(-c4cnc([C@@H]5CC6(CN5C(=O)[C@@H](NC(=O)OC)C(C)C)O[C@@H](C)C[C@H](C)O6)[nH]4)cc3)cc2)[nH]1)C(C)C (stereo partly drawn) [Example 1, methyl [(1S)-1-({(2S)-2-[4-(4′-{2-[(3S,7S,9S)-7,9-dimethyl-2-((2S)-3-methyl-2-{[(methyloxy)carbonyl]amino}butanoyl)-6,10-dioxa-2-azaspiro[4.5]dec-3-yl]-1H-imidazol-4-yl}-4-biphenylyl)-1H-imidazol-2-yl]-1-pyrrolidinyl}carbonyl)-2-methylpropyl]carbamate] | 1.58 | 0.01 |
| COC(=O)N[C@H](C(=O)N1CCC[C@H]1c1ncc(-c2ccc(-c3ccc(-c4cnc([C@@H]5CC6(CN5C(=O)[C@@H](NC(=O)OC)C(C)C)OCCO6)[nH]4)cc3)cc2)[nH]1)C(C)C [Example 2, methyl [(1S)-2-methyl-1-({(2S)-2-[4-(4′-{2-[(8S)-7-((2S)-3-methyl-2-{[(methyloxy)carbonyl]amino}butanoyl)-1,4-dioxa-7-azaspiro[4.4]non-8-yl]-1H-imidazol-4-yl}-4-biphenylyl)-1H-imidazol-2-yl]-1-pyrrolidinyl}carbonyl)propyl]carbamate] | 0.0398 | 0.00794 |
| COC(=O)N[C@H](C(=O)N1CC2(C[C@H]1c1ncc(-c3ccc(-c4ccc(-c5cnc([C@@H]6CC7(CN6C(=O)[C@@H](NC(=O)OC)C(C)C)O[C@@H](C)C[C@H](C)O7)[nH]5)cc4)cc3)[nH]1)O[C@@H](C)C[C@H](C)O2)C(C)C (stereo partly drawn) [Example 3, dimethyl (4,4′-biphenyldiylbis{1H-imidazole-4,2-diyl[(3S,7S,9S)-7,9-dimethyl-6,10-dioxa-2-azaspiro[4.5]decane-3,2-diyl][(2S)-3-methyl-1-oxo-1,2-butanediyl]})biscarbamate] | 25.1 | 0.0158 |
| COC(=O)N[C@H](C(=O)N1CC2(C[C@H]1c1ncc(-c3ccc(-c4ccc(-c5cnc([C@@H]6CC7(CN6C(=O)[C@@H](NC(=O)OC)C(C)C)OCCO7)[nH]5)cc4)cc3)[nH]1)OCCO2)C(C)C [Example 4, dimethyl (4,4′-biphenyldiylbis{1H-imidazole-4,2-diyl(8S)-1,4-dioxa-7-azaspiro[4.4]nonane-8,7-diyl[(2S)-3-methyl-1-oxo-1,2-butanediyl]})biscarbamate] | 0.0398 | 0.01 |
| COC(=O)N[C@@H](C)C(=O)N1CC2(C[C@H]1c1ncc(-c3ccc(-c4ccc(-c5cnc([C@@H]6CCCN6C(=O)[C@@H](NC(=O)OC)C(C)C)[nH]5)cc4)cc3)[nH]1)OCCCO2 [Example 5, methyl ((1S)-1-methyl-2-{(3S)-3-[4-(4′-{2-[(2S)-1-((2S)-3-methyl-2-{[(methyloxy)carbonyl]amino}butanoyl)-2-pyrrolidinyl]-1H-imidazol-4-yl}-4-biphenylyl)-1H-imidazol-2-yl]-6,10-dioxa-2-azaspiro[4.5]dec-2-yl}-2-oxoethyl)carbamate] | 0.0794 | 0.02 |
| COC(=O)N[C@H](C(=O)N1CCC[C@H]1c1ncc(-c2ccc(-c3ccc(-c4cnc([C@@H]5CC6(CN5C(=O)[C@@H](NC(=O)OC)C(C)C)OCCCO6)[nH]4)cc3)cc2)[nH]1)C(C)C [Example 6, methyl [(1S)-2-methyl-1-({(2S)-2-[4-(4′-{2-[(3S)-2-((2S)-3-methyl-2-{[(methyloxy)carbonyl]amino}butanoyl)-6,10-dioxa-2-azaspiro[4.5]dec-3-yl]-1H-imidazol-4-yl}-4-biphenylyl)-1H-imidazol-2-yl]-1-pyrrolidinyl}carbonyl)propyl]carbamate] | 0.0251 | 0.00794 |
